Laboratory results from patent publication US20220257774A1, “AROMATIC AMINE AR AHD BET TARGETING PROTEIN DEGRADATION CHIMERA COMPOUND AND USE” (HINOVA PHARMACEUTICALS INC., priority 2019, published 2022).
Read-outs that look alike come from different tables or passages of the source.

Tested on: LNCaP/AR cells
Assay: Inhibition of the proliferation of LNCap/AR cells (CCK-8)
Format: cell-based
Conditions: read-out: LNCap/AR IC50
Text: 1. Biological Assay of the Inhibition on the Proliferation of LNCap/AR Cells
(1) Experimental materials and instruments: LNCaP/AR cell line and 22RV1 cell line (provided by Sichuan Kangcheng Biotechnology Co., Ltd.) Fetal bovine serum FBS (Gibco, Cat. No. 10099-141) 0.01M PBS (Biosharp, Cat. No. 162262) RIPM1640 medium (Hyclone, Cat. No. 308090.01) Penicillin-Streptomycin (Hyclone, Cat. No. SV30010) Cell counting kit-8 (Signalway Antibody, Cat. No. CP002) DMSO (Sigma, Cat. No. D5879) Centrifuge Tube, 15 ml (Excell Bio, Cat. No. CS015-0001) Cell Culture Dish, (Excell Bio, Cat. No. CS016-0128) 96-well cell culture plate (Corning, Cat. No. 3599) Microplate reader (Thermo Multiskan MK3 type)
(2) Experimental Methods:
a. Preparation of Buffer Cell culture medium: RIPM1640 medium, 10% FBS, 1% Pen Strep: PBS buffer: PBS powder was dissolved in 2 L of ultrapure water and sterilized. b. Experimental Procedures 1) LNCaP/AR cells were subcultured in cell culture media, and then the cells in good growth condition were seeded in a 96-well plate at 80 μL/well (1000 cells/well), and cultured overnight in a 37° C., 5% CO2 cell incubator. 2) The drug was prepared into a 10 mM stock solution with dimethyl sulfoxide (DMSO). Prior to use, the stock solution was diluted in a ratio of […] with DMSO, and then diluted at a 3-fold gradient to obtain 9 serial concentrations. Then, each concentration of compound was further diluted in a ratio of 1:200 with the culture medium (to ensure that the DMSO concentration in the culture system was 0.1%), and two wells were set for each concentration. 20 μL of the diluted compound solution was added to the well of the cell culture (with a final concentration of 10 μM, 3.3 μM, 1.1 μM . . . ), and then the plate was gently tapped to thoroughly mix. In addition, the experiment included 3 negative control wells only containing cells and 3 blank control wells only containing culture medium (6 wells were each added with DMSO diluted in a ratio of 1:200 with 20 μL of culture medium). c. Result Detection: 1) After culturing for 6 days, 10 μL of CCK-8 was added to each well, and the plate was further incubated for 1 h in a 37° C., 5% CO2 cell incubator. 2) The absorbance (OD value) was measured at 450 nm with a multifunctional microplate reader. 3) The data was analyzed by the Dose-response-inhibition equation in the software GraphPad Prism5, and the IC50 value was obtained. 2. Biological assay of the inhibition on the proliferation of other drug-resistant prostate cancer cells

[1] = 144 h, LNCaP/AR cells, 6 days culture, CCK-8
[2] = LNCaP/AR cells, 6 days culture, CCK-8

## CC(=O)O[C@@H]1C[C@@H](C(=O)N[C@@H](C)c2ccc(-c3scnc3C)cc2)N(C(=O)[C@@H](NC(=O)COCCCCCN(c2ccc(C#N)c(Cl)c2)c2cc(-c3c(C)noc3C)ccc2C)C(C)(C)C)C1 [Compound 3]
LNCaP/AR, 144 h
  IC50: 0.101 to 0.5 µM

## Cc1ccc(-c2c(C)noc2C)cc1N(CCOCCOCC(=O)N[C@H](C(=O)N1C[C@H](O)C[C@H]1C(=O)N[C@@H](C)c1ccc(-c2scnc2C)cc1)C(C)(C)C)c1ccc(-n2ccnc2)c(Br)c1 [Compound 55]
[1]
  IC50: > 2 µM

## Cc1ccc(-c2c(C)noc2C)cc1N(CCCC1CCN(c2ccc3c(c2)C(=O)N(C2CCC(=O)NC2=O)C3=O)CC1)c1ccc(C2(C#N)CC2)cc1 (stereo not drawn) [Compound 30, 1-(4-((5-(3,5-Dimethylisoxazol-4-yl)-2-methylphenyl)(3-(1-(2-(2,6-dioxopiperidin-3-yl)-1,3-dioxoisoindolin-5-yl)piperidin-4-yl)propyl)amino)phenyl)cyclopropane-1-nitrile]
[1]
  IC50: 0.101 to 0.5 µM

## CC(=O)O[C@@H]1C[C@@H](C(=O)N[C@@H](C)c2ccc(-c3scnc3C)cc2)N(C(=O)[C@@H](NC(=O)COCCCCCCN(c2ccc(-n3ccnc3)cc2)c2cc(-c3c(C)noc3C)ccc2C)C(C)(C)C)C1 [Compound 5, (3R,5S)-1-((S)-2-(2-((6-((4-(1H-imidazol-1-yl)phenyl)(5-(3,5-Dimethylisoxazol-4-yl)-2-methylphenyl)amino)n-hexyl)oxy)acetylamino)-3,3-dimethylbutyryl)-5-(((S)-1-(4-(4-methylthiazol-5-yl)phenyl)ethyl)formylamino)pyrrolidinyl-3-acetate]
[1]
  IC50: > 2 µM

## CC(=O)O[C@@H]1C[C@@H](C(=O)N[C@@H](C)c2ccc(-c3scnc3C)cc2)N(C(=O)[C@@H](NC(=O)COCCN2CCC(CN(c3ccc(-n4ccnc4)c(Br)c3)c3cc(-c4c(C)noc4C)ccc3C)CC2)C(C)(C)C)C1 [Compound 50, (3R,5S)-1-((S)-2-(2-(4-((3-bromo-4-(1H-imidazol-1-yl)phenyl) (5-(3,5-dimethylisoxazol-4-yl)-2-methylphenyl)amino)methyl)piperidin-1-yl)ethoxy)acetamido)-3,3-dimethylbutyryl)-5-((S)-1-(4-methylthiazol-5-yl)phenyl)ethyl)carbamoyl)pyrrolidine-3-yl acetate]
[1]
  IC50: 0.501 to 2 µM

## CC(=O)O[C@@H]1C[C@@H](C(=O)N[C@@H](C)c2ccc(-c3scnc3C)cc2)N(C(=O)[C@@H](NC(=O)COCCCCCN(c2ccc(-n3ccnc3)cc2)c2cc3onc(C)c3cc2C)C(C)(C)C)C1 [Compound 18, (3R,5S)-1-((S)-2-(2-((5-((4-(1H-imidazol-1-yl)phenyl)(3,5-dimethylbenzo[d]isoxazol-6-yl)amino)pentyl)oxy)acetamido)-3,3-dimethylbutyryl)-5-((S)-1-(4-(4-methylthiazol-5-yl)phenyl)ethyl)carbamoyl)pyrrolidine-3-yl acetate]
[1]
  IC50: > 2 µM

## Cc1ccc(-c2c(C)noc2C)cc1N(CCCCCCCCOCC(=O)N[C@H](C(=O)N1C[C@H](O)C[C@H]1C(=O)N[C@@H](C)c1ccc(-c2scnc2C)cc1)C(C)(C)C)c1ccc(-n2ccnc2)cc1 [Compound 87, (2S,4R)-1-((S)-2-(2-((8-((4-(1H-imidazol-1-yl)phenyl)(5-(3,5-methylisoxazol-4-yl)-2-methylphenyl)amino)cetyl)oxy)acetylamino)-3,3-dimethylbutyryl)-4-hydroxy-N—((S)-1-(4-(4-methylthiazol-5-yl)phenyl)ethyl)pyrrolidinyl-2-formamide]
[1]
  IC50: 0.501 to 2 µM

## CC(=O)O[C@@H]1C[C@@H](C(=O)N[C@@H](C)c2ccc(-c3scnc3C)cc2)N(C(=O)[C@@H](NC(=O)COCCCCCN(c2ccc(-n3ccnc3)c(Br)c2)c2cc(-c3c(C)noc3C)ccc2C)C(C)(C)C)C1 [Compound 9, (3R,5S)-1-((S)-2-(2-((5-((3-bromo-4-(1H-imidazol-1-yl)phenyl)(5-(3,5-dimethylisoxazol-4-yl)-2-methylphenyl)amino)n-pentyl)oxy)acetylamino)-3,3-dimethylbutyryl)-5-(((S)-1-(4-(4-methylthiazol-5-yl)phenyl)ethyl)formylamino)pyrrolidinyl-3-acetate]
[2]
  IC50: 0.501 to 2 µM

## Cc1ccc(-c2c(C)noc2C)cc1N(CCCC1CCN(CC(=O)N[C@H](C(=O)N2C[C@H](O)C[C@H]2C(=O)N[C@@H](C)c2ccc(-c3scnc3C)cc2)C(C)(C)C)CC1)c1ccc(-n2ccnc2)c(Br)c1 [Compound 141, (2S,4R)-1-((S)-2-(2-(4-(3-((3-bromo-4-(1H-imidazol-1-yl)phenyl)(5-(3,5-dimethylisoxazol-4-yl)-2-methylphenyl)amino)propyl)piperidin-1-yl)acetamido)-3,3-dimethylbutyryl)-4-hydroxy-N—((S)-1-(4-(4-methylthiazol-5-yl)phenyl)ethyl)tetrahydropyrrole-2-amide]
[1]
  IC50: 0.101 to 0.5 µM

## CC(=O)O[C@@H]1C[C@@H](C(=O)N[C@@H](C)c2ccc(-c3scnc3C)cc2)N(C(=O)[C@@H](NC(=O)COCCCCCN(c2ccc(-n3cnc(C)c3)cc2)c2cc(-c3c(C)noc3C)ccc2C)C(C)(C)C)C1 [Compound 96, (3R,5S)-1-((S)-2-(2-((5-((5-(3,5-dimethylisoxazol-4-yl)-2-methylphenyl)(4-(4-methyl-1H-imidazol-1-yl)phenyl)amino)pentyl)oxy)acetylamino)-3,3-dimethylbutyryl)-5-(((S)-1-(4-(4-methylthiazol-5-yl)phenyl)ethyl)aminoformyl)pyrrolidinyl-3-yl acetate]
[2]
  IC50: < 0.1 µM

## CCN(c1ccc(C#N)c(Cl)c1)c1cc(-c2nn(CCCCCOCC(=O)N[C@H](C(=O)N3C[C@H](O)C[C@H]3C(=O)N[C@@H](C)c3ccc(-c4scnc4C)cc3)C(C)(C)C)cc2C)ccc1C [Compound 2]
LNCaP/AR, 144 h
  IC50: > 2 µM

## Cc1ccc(-c2c(C)noc2C)cc1N(CCCCCNc1cc2c(cc1F)C(=O)N(C1CCC(=O)NC1=O)C2=O)c1ccc(C2(C#N)CC2)cc1 (stereo not drawn) [Compound 148, 1-(4-((5-(3,5-Dimethylisoxazol-4-yl)-2-methylphenyl)(5-((2-(2,6-dioxopiperidin-3)-6-fluoro-1,3-dicarbonylisoindolin-5))amino)pentyl)amino)phenylcyclopropanecarbonitrile]
[1]
  IC50: 0.501 to 2 µM

## Cc1ccc(-c2c(C)noc2C)cc1N(CCCCCCCOCC(=O)N[C@H](C(=O)N1C[C@H](O)C[C@H]1C(=O)N[C@@H](C)c1ccc(-c2scnc2C)cc1)C(C)(C)C)c1ccc(-n2ccnc2)cc1 [Compound 8]
[1]
  IC50: 0.501 to 2 µM

## COc1ccc(N(CCCCCOCC(=O)N[C@H](C(=O)N2C[C@H](OC(C)=O)C[C@H]2C(=O)N[C@@H](C)c2ccc(-c3scnc3C)cc2)C(C)(C)C)c2cc(-c3c(C)noc3C)ccc2C)cc1 [Compound 56, (3R,5S)-1-((S)-2-(2-((5-((5-(3,5-dimethylisoxazol-4-yl)-2-methylphenyl)(4-methoxyphenyl)amino)pentyl)oxy)acetamido)-3,3-dimethylbutyryl)-5-((S)-1-(4-(4-methylthiazol-5-yl)phenyl)ethyl)carbamoyl)pyrrolidine-3-yl acetate]
[2]
  IC50: 0.101 to 0.5 µM

## Cc1ccc(-c2c(C)noc2C)cc1N(CCCCCOCC(=O)Nc1cccc2c1CN(C1CCC(=O)NC1=O)C2=O)c1ccc(C2(C#N)CC2)cc1 (stereo not drawn) [Compound 144]
[1]
  IC50: 0.101 to 0.5 µM

## CC(=O)O[C@@H]1C[C@@H](C(=O)N[C@@H](C)c2ccc(-c3scnc3C)cc2)N(C(=O)[C@@H](NC(=O)COCCCCCN(c2ccc(C#N)c(C(F)(F)F)c2)c2cc(-c3c(C)noc3C)ccc2C)C(C)(C)C)C1 [Compound 4]
LNCaP/AR, 144 h
  IC50: > 2 µM

## CC(=O)O[C@@H]1C[C@@H](C(=O)N[C@@H](C)c2ccc(-c3scnc3C)cc2)N(C(=O)[C@@H](NC(=O)COCCCCCN(c2ccc(-n3cncn3)cc2)c2cc(-c3c(C)noc3C)ccc2C)C(C)(C)C)C1 [Compound 92, (3R,5S)-1-((S)-2-(2-((5-((4-(1H-1,2,4-triazol-1-yl)phenyl)(5-(3,5-dimethylisoxazol-4-yl)-2-methylphenyl)amino)pentyl)oxy)acetylamino)-3,3-dimethylbutyryl)-5-(((S)-1-(4-(4-methylthiazol-5-yl)phenyl)ethyl)aminoformyl)pyrrolidinyl-3-yl acetate]
[1]
  IC50: 0.101 to 0.5 µM

## Cc1ccc(-c2c(C)noc2C)cc1N(CCCCCOCC(=O)Nc1cccc2c1CN(C1CCC(=O)NC1=O)C2=O)c1ccc(-n2ccnc2)c(Br)c1 (stereo not drawn) [Compound 25, 2-((5-((3-Bromo-4-(1H-imidazol-1-yl)phenyl)(5-(3,5-Dimethylisoxazol-4-yl)-2-methylphenyl)amino)pentyl)oxy)-N-(2-(2,6-dioxopiperidin-3-yl)-1-oxoisoindol-4-yl)acetamide]
[1]
  IC50: > 2 µM
